Results from patent US20260027116A1, “Methods of Treating Chronic Graft-Versus-Host Disease Following Allogeneic Hematopoietic Stem Cell Transplantation” (Kadmon Corporation, LLC, priority 2022, published 2026).

Assays:
[1] = tested on: cGVHD symptom burden; experiment: Example 2: 7-day LSS summary score; assay type: in vivo, human; settings: for Clinically significant improvement from baseline (LSS), Overall: decrease ≥ 7 points in LSS score
Description: All responses were assessed by the study site investigators.

[2] = biological target: CYP2D6 (Homo sapiens, UniProt P10635); experiment: metabolism in vitro; assay type: in vitro ADME
CYP2D6, sequence (P10635 whole entry): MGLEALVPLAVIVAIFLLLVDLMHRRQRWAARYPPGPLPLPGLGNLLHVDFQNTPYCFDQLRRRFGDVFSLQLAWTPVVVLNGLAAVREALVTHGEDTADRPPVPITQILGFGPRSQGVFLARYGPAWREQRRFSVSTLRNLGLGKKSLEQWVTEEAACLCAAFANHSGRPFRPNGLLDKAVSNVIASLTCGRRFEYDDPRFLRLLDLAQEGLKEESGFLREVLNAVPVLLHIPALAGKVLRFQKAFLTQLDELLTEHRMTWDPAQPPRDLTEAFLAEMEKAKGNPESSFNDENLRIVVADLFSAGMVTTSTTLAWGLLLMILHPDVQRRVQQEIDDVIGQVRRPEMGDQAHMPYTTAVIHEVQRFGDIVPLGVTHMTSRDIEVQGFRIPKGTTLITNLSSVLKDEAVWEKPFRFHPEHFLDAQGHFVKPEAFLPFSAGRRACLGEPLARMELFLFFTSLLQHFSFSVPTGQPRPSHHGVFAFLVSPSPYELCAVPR

Structure (SMILES): CC(C)NC(=O)COc1cccc(-c2nc(Nc3ccc4[nH]ncc4c3)c3ccccc3n2)c1 [Belumosudil, 2-{3-[4-(1H-indazol-5-ylamino)-2-quinazolinyl]phenoxy}-N-(propan-2-yl) acetamide]
- clinically meaningful LSS improvement, nonresponders ([1]; 200 mg daily): 29%
- clinically meaningful LSS improvement, responders ([1]; 200 mg daily): 69%
- clinically meaningful improvement (≥7-point) in 7-day LSS summary score, mITT ([1]; 200 mg daily): 59%
- clinically meaningful LSS improvement, nonresponders ([1]; 200 mg twice daily): 33%
- clinically meaningful LSS improvement, responders ([1]; 200 mg twice daily): 71%
- clinically meaningful improvement (≥7-point) in 7-day LSS summary score, mITT ([1]; 200 mg twice daily): 62%
- Clinically significant improvement from baseline (LSS), Overall ([1]; 200 mg daily (n = 66)): 39 (59) n (%)
- Clinically significant improvement from baseline (LSS), Overall ([1]; 200 mg twice daily (n = 66)): 41 (62) n (%)
- Clinically significant improvement from baseline (LSS), Overall ([1]; Total (N = 132)): 80 (61) n (%)
- metabolism by CYP2D6 [2]: to a lesser extent
